Source: US12037333B2, “Pyridopyrazine and pyridotriazine inhibitors of influenza virus replication” (priority 2018, dated 2024)

What follows are molecules tested on Influenza type B (cell culture adapted strain B/Lee/40, ATCC VR-1535) (assay: Influenza antiviral assay: inhibition of virus-induced cytopathic effects (CPE) in MDCK cells, XTT dye reduction). Settings: Influenza B virus, MDCK, 96 h, strain B/Lee/40, MDCK cells, CPE inhibition at 4 days.
Format: cell-based

`O=C1c2c(O)c(=O)ccn2N(C23c4ccccc4CC2Cc2cc(F)c(F)cc23)CN1CCc1cccc(F)c1` (centres unmarked) [Compound A28, 1-(2,3-difluoro-9a,10-dihydroindeno[1,2-a]inden-4b(9H)-yl)-3-(3-fluorophenethyl)-5-hydroxy-2,3-dihydro-1H-pyrido[2,1-f][1,2,4]triazine-4,6-dione] and `O=C1c2c(O)c(=O)ccn2N(C23c4ccccc4CC2Cc2cc(F)c(F)cc23)CN1CCc1ccc(F)cc1` (centres unmarked) [Compound A29, 1-(2,3-difluoro-9a,10-dihydroindeno[1,2-a]inden-4b(9H)-yl)-3-(4-fluorophenethyl)-5-hydroxy-2,3-dihydro-1H-pyrido[2,1-f][1,2,4]triazine-4,6-dione] fall in the same range of EC50: 250 to 375 nM for the first, 250 to 375 nM for the second.

`O=C1c2c(O)c(=O)ccn2N(C23c4ccccc4CC2Cc2c(Cl)cccc23)CN1C1CC1` (centres unmarked) [Compound A93] and `O=C1c2c(O)c(=O)ccn2N(C23c4ccccc4CC2Cc2c(Cl)cccc23)CN1C1CCC1` (centres unmarked) [Compound A103] fall in the same range of EC50: 125 to 250 nM for the first, 125 to 250 nM for the second.

First: O=C1c2c(O)c(=O)ccn2N(C23c4ccccc4CC2Cc2c3ccc(F)c2F)CN1C1CCC1 (centres unmarked) [Compound A92, 3-Cyclobutyl-1-(1,2-difluoro-9a,10-dihydroindeno[1,2-a]inden-4b(9H)-yl)-5-hydroxy-2,3-dihydro-1H-pyrido[2,1-f][1,2,4]triazine-4,6-dione]
Second: O=C1c2c(O)c(=O)ccn2N(C23c4ccccc4CC2Cc2c3ccc(F)c2F)CN1C1CC1 (centres unmarked) [Compound A61]
The EC50 of the first is higher: 250 to 375 nM for the first, less than 125 nM for the second.

`O=C1c2c(O)c(=O)ccn2N(C23c4ccccc4CC2Cc2c(F)cccc23)CN1C1CC1` (centres unmarked) [Compound A65] and `O=C1c2c(O)c(=O)ccn2N(C23c4ccccc4CC2Cc2c(F)cccc23)CN1CC(F)F` (centres unmarked) [Compound A83] cannot be ordered by EC50: less than 125 nM for the first, less than 125 nM for the second.

`O=C1c2c(O)c(=O)ccn2N(C23c4cccc(F)c4CC2Cc2c(F)cccc23)CN1CC(F)F` (centres unmarked) [Compound A71] and `O=C1c2c(O)c(=O)ccn2N(C23c4cccc(F)c4CC2Cc2c(F)cccc23)CN1CCCF` (centres unmarked) [Compound A72] cannot be ordered by EC50: less than 125 nM for the first, less than 125 nM for the second.

First: CC(C)N1CN(C23c4ccccc4CC2(C)Cc2ccccc23)n2ccc(=O)c(O)c2C1=O (centres unmarked) [Compound A50, 5-hydroxy-3-isopropyl-1-(9a-methyl-9a,10-dihydroindeno[1,2-a]inden-4b(9H)-yl)-2,3-dihydro-1H-pyrido[2,1-f] [1,2,4] triazine-4,6-dione]
Second: CCN1CN(C23c4ccccc4CC2(C)Cc2ccccc23)n2ccc(=O)c(O)c2C1=O (centres unmarked) [Compound A147]
The EC50 of the first is lower: less than 125 nM for the first, 125 to 250 nM for the second. The first is the more potent here.

`O=C1c2c(O)c(=O)ccn2N(C23c4ccccc4CC2Cc2c(F)cccc23)CN1CCCF` (centres unmarked) [Compound A79] and `O=C1c2c(O)c(=O)ccn2N(C23c4ccccc4CC2Cc2c3ccc(F)c2F)CN1CCCF` (centres unmarked) [Compound A80] cannot be ordered by EC50: less than 125 nM for the first, less than 125 nM for the second.

First: O=C1c2c(O)c(=O)ccn2N(C23c4ccccc4CC2Cc2c(F)cccc23)CN1CCc1ccccc1 (centres unmarked) [Compound A87]
Second: O=C1c2c(O)c(=O)ccn2N(C23c4ccccc4CC2Cc2c3ccc(F)c2F)CN1CCc1ccccc1 (centres unmarked) [Compound A25, 1-(1,2-difluoro-9a,10-dihydroindeno[1,2-a]inden-4b(9H)-yl)-5-hydroxy-3-phenethyl-2,3-dihydro-1H-pyrido[2,1-f][1,2,4]triazine-4,6-dione]
The EC50 of the first is lower: less than 125 nM for the first, 375 to 500 nM for the second.

Compared with `CCN1C(=O)c2c(O)c(=O)ccn2N(C23c4ccccc4CC2Cc2c(Cl)cccc23)C1C` (centres unmarked) [Compound A95], `CC1N(CC2CC2)C(=O)c2c(O)c(=O)ccn2N1C12c3ccccc3CC1Cc1c(Cl)cccc12` (centres unmarked) [Compound A140] is higher in EC50: less than 125 nM for the first, 250 to 375 nM for the second. The first is the more potent here.

`CN1C(=O)c2c(O)c(=O)ccn2N(C23C(=Cc4c(F)cccc42)Cc2c(F)cccc23)C1CN` (centres unmarked) [Compound A106, 2-(aminomethyl)-1-(1,8-difluoroindeno[1,2-a]inden-4b(9H)-yl)-5-hydroxy-3-methyl-2,3-dihydro-1H-pyrido[2,1-f][1,2,4]triazine-4,6-dione] and `CC1N(C)C(=O)c2c(O)c(=O)ccn2N1C12c3cccc(F)c3CC1Cc1c(F)cccc12` (centres unmarked) [Compound A73] cannot be ordered by EC50: less than 125 nM for the first, less than 125 nM for the second.

`COC12Cc3ccccc3C1(N1CN(C)C(=O)c3c(O)c(=O)ccn31)c1ccccc1C2` (centres unmarked) [Compound A62] and `CCC12Cc3ccccc3C1(N1CN(C)C(=O)c3c(O)c(=O)ccn31)c1ccccc1C2` (centres unmarked) [Compound A162] cannot be ordered by EC50: less than 125 nM for the first, less than 125 nM for the second.

First: CCN1CN(C23c4ccccc4CC2Cc2c3ccc(F)c2F)n2ccc(=O)c(O)c2C1=O (centres unmarked) [Compound A14, 1-(1,2-Difluoro-9a,10-dihydro-9H-indeno[1,2-a]inden-4b-yl)-3-ethyl-5-hydroxy-2,3-dihydro-1H-pyrido[2,1-f][1,2,4]triazine-4,6-dione]
Second: CCN1CN(C23c4ccccc4CC2Cc2c3ccc(C)c2F)n2ccc(=O)c(O)c2C1=O (centres unmarked) [Compound A98]
The EC50 of the first is higher: 125 to 250 nM for the first, less than 125 nM for the second.

First: O=C1c2c(O)c(=O)ccn2N(C23c4cccc(F)c4CC2Cc2c(F)cccc23)CN1CC1CCCCO1 (centres unmarked) [Compound A130]
Second: O=C1c2c(O)c(=O)ccn2N(C23c4cccc(F)c4CC2Cc2c(F)cccc23)CN1CC1CC1 (centres unmarked) [Compound A76]
The EC50 of the first is higher: 125 to 250 nM for the first, less than 125 nM for the second.

First: CC(C)CN1C(=O)c2c(O)c(=O)ccn2N(C23c4ccccc4CC2Cc2c(F)cccc23)C1C (centres unmarked) [Compound A117]
Second: CC1N(CC(F)F)C(=O)c2c(O)c(=O)ccn2N1C12c3ccccc3CC1Cc1c(F)cccc12 (centres unmarked) [Compound A139]
The EC50 of the first is higher: 250 to 375 nM for the first, 125 to 250 nM for the second. The second is the more potent here.

Compared with `O=C1c2c(O)c(=O)ccn2N(C23c4ccccc4CC2Cc2c3ccc(F)c2F)CN1CC1CC1` (centres unmarked) [Compound A9, 3-Cyclopropylmethyl-1-(1,2-difluoro-9a,10-dihydro-9H-indeno[1,2-a]inden-4b-yl)-5-hydroxy-2,3-dihydro-1H-pyrido[2,1-f][1,2,4]triazine-4,6-dione], `O=C1c2c(O)c(=O)ccn2N(C23c4ccccc4CC2Cc2c3ccc(F)c2F)CN1CC1CCOCC1` (centres unmarked) [Compound A15, 1-(1,2-Difluoro-9a,10-dihydro-9H-indeno[1,2-a]inden-4b-yl)-5-hydroxy-3-(tetrahydro-pyran-4-ylmethyl)-2,3-dihydro-1H-pyrido[2,1-f][1,2,4]triazine-4,6-dione] is lower in EC50: 125 to 250 nM for the first, less than 125 nM for the second.

First: O=C1c2c(O)c(=O)ccn2N(C23c4ccccc4CC2Cc2c3ccc(F)c2F)CN1Cc1ccccc1 (centres unmarked) [Compound A11, 3-Benzyl-1-(1,2-difluoro-9a,10-dihydro-9H-indeno[1,2-a]inden-4b-yl)-5-hydroxy-2,3-dihydro-1H-pyrido[2,1-t][1,2,4]triazine-4,6-dione]
Second: O=C1c2c(O)c(=O)ccn2N(C23c4ccccc4CC2Cc2cc(F)c(F)cc23)CN1Cc1ccccc1 (centres unmarked) [Compound A21, 3-benzyl-1-(2,3-difluoro-9a,10-dihydroindeno[1,2-a]inden-4b(9H)-yl)-5-hydroxy-2,3-dihydro-1H-pyrido[2,1-f][1,2,4]triazine-4,6-dione]
The EC50 of the first is higher: 375 to 500 nM for the first, less than 125 nM for the second.

First: O=C1c2c(O)c(=O)ccn2N(C23c4ccccc4CC2Cc2ccccc23)CN1CC1CC1 (centres unmarked) [Compound A2, 3-Cyclopropylmethyl-1-(9a,10-dihydro-9H-indeno[1,2-a]inden-4b-yl)-5-hydroxy-2,3-dihydro-1H-pyrido[2,1-f][1,2,4]triazine-4,6-dione]
Second: CN1CN(C23c4ccccc4CC2Cc2ccccc23)n2ccc(=O)c(O)c2C1=O (centres unmarked) [Compound A1, 1-(9a, 10-dihydroindeno[1,2-a]inden-4b(9H)-yl)-5-hydroxy-3-methyl-2,3-dihydro-1H-pyrido[2,1-f][1,2,4]triazine-4,6-dione]
The EC50 of the first is higher: greater than 500 nM for the first, 250 to 375 nM for the second.

Compared with `O=C1c2c(O)c(=O)ccn2N(C23c4ccccc4CC2Cc2c3ccc(F)c2F)CN1CCc1cccc(F)c1` (centres unmarked) [Compound A27, 1-(1,2-difluoro-9a,10-dihydroindeno[1,2-a]inden-4b(9H)-yl)-3-(3-fluorophenethyl)-5-hydroxy-2,3-dihydro-1H-pyrido[2,1-f][1,2,4]triazine-4,6-dione], `O=C1c2c(O)c(=O)ccn2N(C23c4ccccc4CC2Cc2c3ccc(F)c2F)CN1CC(F)F` (centres unmarked) [Compound A84] is lower in EC50: 250 to 375 nM for the first, 125 to 250 nM for the second. The second is the more potent here.

Compared with `CCN1CN(C23c4cccc(F)c4CC2Cc2c(Cl)cccc23)n2ccc(=O)c(O)c2C1=O` (centres unmarked) [Compound A151], `CCN1CN(C23c4ccccc4CC2Cc2c(Cl)cccc23)n2ccc(=O)c(O)c2C1=O` (centres unmarked) [Compound A55] is lower in EC50: 125 to 250 nM for the first, less than 125 nM for the second. The second is the more potent here.

Going from `CCN1CN(C23c4ccccc4CC2Cc2cc(F)c(F)cc23)n2ccc(=O)c(O)c2C1=O` (centres unmarked) [Compound A10, 1-(2,3-Difluoro-9a,10-dihydro-9H-indeno[1,2-a]inden-4b-yl)-3-ethyl-5-hydroxy-2,3-dihydro-1H-pyrido[2,1-f][1,2,4]triazine-4,6-dione] to `O=C1c2c(O)c(=O)ccn2N(C23c4ccccc4CC2Cc2cc(F)c(F)cc23)CN1CCc1ccccc1` (centres unmarked) [Compound A22, 1-(2,3-difluoro-9a,10-dihydroindeno[1,2-a]inden-4b(9H)-yl)-5-hydroxy-3-phenethyl-2,3-dihydro-1H-pyrido[2,1-f][1,2,4]triazine-4,6-dione], the EC50 falls from greater than 500 nM to less than 125 nM.

`CC1N(CC2CC2)C(=O)c2c(O)c(=O)ccn2N1C12c3ccccc3CC1Cc1c2ccc(F)c1F` (centres unmarked) [Compound A128] and `COCCN1C(=O)c2c(O)c(=O)ccn2N(C23c4ccccc4CC2Cc2c3ccc(F)c2F)C1C` (centres unmarked) [Compound A113] fall in the same range of EC50: 125 to 250 nM for the first, 125 to 250 nM for the second.

`CCN1CN(C23c4ccccc4CC2(C)Cc2cc(F)ccc23)n2ccc(=O)c(O)c2C1=O` (centres unmarked) [Compound A116] and `CN1CN(C23c4ccccc4CC2(C)Cc2cc(F)ccc23)n2ccc(=O)c(O)c2C1=O` (centres unmarked) [Compound A126] cannot be ordered by EC50: less than 125 nM for the first, less than 125 nM for the second.

First: O=C1c2c(O)c(=O)ccn2N(C23c4ccccc4CC2Cc2c(Cl)cccc23)CN1CC1CCC1 (centres unmarked) [Compound A112]
Second: O=C1c2c(O)c(=O)ccn2N(C23c4ccccc4CC2Cc2c(Cl)cccc23)CN1CCF (centres unmarked) [Compound A111]
The EC50 of the first is higher: 250 to 375 nM for the first, 125 to 250 nM for the second.

First: CCN1CN(C23c4ccccc4CC2Cc2c(C)cccc23)n2ccc(=O)c(O)c2C1=O (centres unmarked) [Compound A82]
Second: CC(C)N1CN(C23c4ccccc4CC2(C)Cc2c3ccc(F)c2F)n2ccc(=O)c(O)c2C1=O (centres unmarked) [Compound A167]
The EC50 of the first is higher: 125 to 250 nM for the first, less than 125 nM for the second.

Same assay, conditions: strain B/Lee/40, MDCK cells, CPE inhibition at 4 days

For `CCN1CN(C23c4cccc(F)c4CC2Cc2c(F)cccc23)n2ccc(=O)c(O)c2C1=O` (centres unmarked) [Compound A43], the EC50 was less than 125 nM.
Molecule `CCN1CN(C23c4cccc(F)c4CC2Cc2c(F)cccc23)n2ccc(=O)c(O)c2C1=O` (centres unmarked) [Compound A34] has an EC50 greater than 500 nM.
